{"source": "paper PMC4052304", "about": "“New Benzoxazine Secondary Metabolites from an Arctic Actinomycete” (Marine Drugs, 2014)", "key": {"[1]": {"target": "Candida albicans isocitrate lyase (ICL) (Candida albicans, UniProt Q9P8Q7)", "sequence (Q9P8Q7 whole entry)": "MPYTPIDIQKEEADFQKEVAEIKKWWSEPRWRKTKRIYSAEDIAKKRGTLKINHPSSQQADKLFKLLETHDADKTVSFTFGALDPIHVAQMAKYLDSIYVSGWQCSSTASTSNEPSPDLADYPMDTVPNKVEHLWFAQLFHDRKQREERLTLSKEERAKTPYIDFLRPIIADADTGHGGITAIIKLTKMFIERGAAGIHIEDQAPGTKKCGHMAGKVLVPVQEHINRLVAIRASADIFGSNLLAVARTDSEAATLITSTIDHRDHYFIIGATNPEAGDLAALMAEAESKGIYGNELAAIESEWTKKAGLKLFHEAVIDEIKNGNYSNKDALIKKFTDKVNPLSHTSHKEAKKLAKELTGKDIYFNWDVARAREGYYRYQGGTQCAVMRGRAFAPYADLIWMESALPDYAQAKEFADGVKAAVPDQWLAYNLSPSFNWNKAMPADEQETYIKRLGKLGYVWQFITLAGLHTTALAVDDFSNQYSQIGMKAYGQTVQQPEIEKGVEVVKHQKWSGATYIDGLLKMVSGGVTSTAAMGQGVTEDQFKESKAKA", "assay": "Inhibition of the isocitrate lyase (ICL) activity assay", "format": "biochemical", "conditions": "for inhibitory activity towards ICL (in words): even at high concentrations (100 μg/mL)", "experimental": "The formation of glyoxylate phenylhydrazone in the presence of phenylhydrazine and isocitrate was measured spectrophotometrically at 324 nm. The enzyme reaction mixture (1 mL) included 1.27 mM threo-DS (+) isocitrate, 3.75 mM MgCl2, 4.1 mM phenylhydrazine, 20 mM sodium phosphate buffer (pH 7.0), and 2.5 μg/mL purified C. albicans ICL. The reaction was performed at 37 °C for 30 min, and the protein concentration was measured using the Bradford method and a Bio-Rad protein assay Kit (Bio-Rad, Alfred Nobel Dr. Hercules, CA, USA) with bovine serum albumin as a standard."}, "[2]": {"test_system": "HCT116, A549, SNU638, SK-HEP1, K562 and MDA-MB231 human carcinoma cell lines", "assay": "Anti-proliferative activity, SRB assay, panel of six human carcinoma cell lines", "format": "cell-based", "conditions": "72 h", "experimental": "(§1) Cell proliferation was analyzed using the sulforhodamine B (SRB) assay. Six human cancer cell lines (HCT116, MDA-MB231, SNU638, A549, K562, and SK-HEP1 at 3 × 10^4 cells/mL) were seeded in 96-well plates at different compound concentrations before incubating at 37 °C in a humidified atmosphere with 5% CO2. After 72 h of treatment, the cells were fixed with a 10% TCA solution for 1 h before staining the cellular proteins with 0.4% SRB in 1% acetic acid. The stained cells were dissolved in 10 mM Tris buffer (pH 10.0). The effects of the compounds on cell proliferation were calculated as percentages relative to the solvent-treated control. In addition, the IC50 values were determined by nonlinear regression analysis (percent survival versus concentration)."}, "[3]": {"test_system": "SK-HEP1 (liver cancer) cells", "assay": "Anti-proliferative activity, SRB assay, SK-HEP1", "format": "cell-based", "conditions": "Homo sapiens, SK-HEP1, 72 h, read-out: IC50, cytotoxicity against SK-HEP1", "experimental": "as §1"}, "[4]": {"test_system": "MDA-MB231 (breast cancer) cells", "assay": "Anti-proliferative activity, SRB assay, MDA-MB231", "format": "cell-based", "conditions": "Homo sapiens, MDA-MB-231, 72 h, read-out: IC50, cytotoxicity against MDA-MB231", "experimental": "as §1"}, "[5]": {"test_system": "HCT116 (colon cancer) cells", "assay": "Anti-proliferative activity, SRB assay, HCT116", "format": "cell-based", "conditions": "Homo sapiens, HCT-116, 72 h, read-out: IC50, cytotoxicity against HCT116", "experimental": "as §1"}, "A549 (lung cancer) cells": {"test_system": "A549 (lung cancer) cells", "assay": "Anti-proliferative activity, SRB assay, A549", "format": "cell-based", "conditions": "Homo sapiens, A549, 72 h, read-out: IC50, cytotoxicity against A549", "experimental": "as §1"}, "[6]": {"test_system": "K562 (leukemia cancer) cells", "assay": "Anti-proliferative activity, SRB assay, K562", "format": "cell-based", "conditions": "Homo sapiens, K562, 72 h, read-out: IC50, cytotoxicity against K562", "experimental": "as §1"}, "[7]": {"test_system": "SNU638 (gastric cancer) cells", "assay": "Anti-proliferative activity, SRB assay, SNU638", "format": "cell-based", "conditions": "Homo sapiens, SNU-638, 72 h, read-out: IC50, cytotoxicity against SNU638", "experimental": "as §1"}, "[8]": {"conditions": "purified C. albicans ICL 2.5 μg/mL, 37 °C, 30 min, pH 7.0, read-out: IC50, inhibition of Candida albicans isocitrate lyase (ICL)"}}, "note": "Like-named read-outs stand apart in the source and are kept apart here."}
{"smiles": "O=C(O)CC[N+](=O)[O-]", "note": "[3-nitropropionic acid, reference compound]", "values": [{"measurement": "IC50", "setting": "[1]; [8]", "value": 35.2, "unit": "µM"}]}
{"smiles": "C=C1Oc2cc(OC)cc(C(=O)OC[C@H]3O[C@H](OC[C@H]4O[C@H](O)[C@H](O)[C@@H](O)[C@@H]4O)[C@H](O)[C@@H](O)[C@@H]3O)c2NC1=O", "note": "[Compound 1, arcticoside]", "values": [{"measurement": "IC50", "setting": "[1]; [8]", "value": 30.4, "unit": "µM"}, {"measurement": "cytotoxicity against human carcinoma cell lines (in words)", "setting": "[2]", "value": "did not display notable inhibitory activity"}]}
{"smiles": "C=C1Oc2cc(OC)cc(C(=O)O[C@H]3COC(=O)C[C@H](N)c4cc(O)c(c(Cl)c4)O[C@@H]4c5ccc3c(Cl)c5C3=CC=C[C@@]34O[C@@H]3OC(C)(C)[C@@H](N(C)C)[C@@H](O)[C@H]3O)c2NC1=O", "note": "[Compound 2, C-1027 chromophore-V]", "values": [{"measurement": "IC50", "setting": "[1]", "value": 37.9, "unit": "µM"}, {"measurement": "IC50", "setting": "[3]", "value": 7.9, "unit": "µM"}, {"measurement": "IC50", "setting": "[4]", "value": 0.9, "unit": "µM"}, {"measurement": "IC50", "setting": "[5]", "value": 2.7, "unit": "µM"}, {"measurement": "IC50", "setting": "A549 (lung cancer) cells", "value": 14.7, "unit": "µM"}, {"measurement": "IC50", "setting": "[6]", "value": 25.1, "unit": "µM"}, {"measurement": "IC50", "setting": "[7]", "value": 9.8, "unit": "µM"}]}
{"smiles": "C=C1Oc2cc(OC)cc(C(=O)O[C@H]3COC(=O)C[C@H](N)c4cc(O)c(c(Cl)c4)O[C@@H]4c5ccc3cc5C3=CC=C[C@@]34O[C@@H]3OC(C)(C)[C@@H](N(C)C)[C@@H](O)[C@H]3O)c2NC1=O", "note": "[Compound 3, C-1027 chromophore-III]", "values": [{"measurement": "IC50", "setting": "[1]", "value": 25.6, "unit": "µM"}, {"measurement": "IC50", "setting": "[3]", "value": 0.9, "unit": "µM"}, {"measurement": "IC50", "setting": "[4]", "value": 44, "unit": "µM"}, {"measurement": "IC50", "setting": "[5]", "value": 0.6, "unit": "µM"}, {"measurement": "IC50", "setting": "A549 (lung cancer) cells", "value": 2.2, "unit": "µM"}, {"measurement": "IC50", "setting": "[6]", "value": 4.8, "unit": "µM"}, {"measurement": "IC50", "setting": "[7]", "value": 1.1, "unit": "µM"}]}
{"smiles": "CC(=O)N[C@H]1CC(=O)OC[C@H](O)c2ccc3c(c2Cl)C2=CC=C[C@]2(O[C@@H]2OC(C)(C)[C@@H](N(C)C)[C@@H](O)[C@H]2O)[C@@H]3Oc2c(O)cc1cc2Cl", "note": "[Compound 4, fijiolide A]", "values": [{"measurement": "inhibitory activity towards ICL (in words)", "setting": "[1]", "value": "no activity"}]}
{"smiles": "CN(C)[C@H]1[C@@H](O)[C@@H](O)[C@H](O[C@]23C=CC=C2c2c4ccc(c2Cl)[C@@H](O)COC(=O)C[C@H](N)c2cc(O)c(c(Cl)c2)O[C@H]43)OC1(C)C", "note": "[Compound 5, fijiolide B]", "values": [{"measurement": "inhibitory activity towards ICL (in words)", "setting": "[1]", "value": "no activity"}]}
